Patent US10595532B2, “Ophthalmic contact lens solutions containing forms of vitamin B” (FXS Ventures, LLC, priority 2000, dated 2020)
Counter-ions that a name gives are not always drawn.

What was measured:
Type in all cases: cell-based
[1] = test system: E. coli; assay: in vitro anti-microbial activity of vitamin B solutions in 0.5% Tris buffer with PHMB (Example 3); conditions: for effect on the preservative (PHMB): 0.5% vitamin B, 1 ppm PHMB, E. coli 1 hour; for Log Reduction at 1 hr: E. coli, room temperature, 0.5% Tris, 0.6% sodium chloride, pH 7.2, 1 ppm PHMB, vitamin B 0.5% or none
Protocol: (§1) Formulations containing Dexpanthanol (Spectrum), Pyridoxine HCl (Spectrum) Thiamine HCl (Spectrum), and no Vitamin B control were prepared in a 0.5% Tris buffer containing 0.6% sodium chloride. The pH was adjusted with 1 N HCl to a final pH of 7.2. Polyhexamethylene biquanide (PHMB) at 0.0001% was added to each formulation. The in vitro anti-microbial activity of the solutions was determined by exposing E. coli to 10 ml of each solution at room temperature for 1 hours. Subsequently, an aliquot of each solution was serial diluted onto agar plates and incubated for 48 hours at elevated temperatures. At the conclusion of the incubation period the plates are examined for the development of colonies. The log reduction was determined based on a comparison to the inoculum control.

[2] = test system: C. albicans; assay: in vitro microbicidal activity of dexpanthenol solutions in 0.25% Bis-Tris Propane buffer preserved with PHMB (Example 2); conditions: PHMB 0.5 ppm; for Log Reduction Calibicans 4 hour: C. albicans, room temperature, Bis-Tris Propane 0.25%, Cremophor 0.20%, Inositol 3.0%, Allantoin 0.1%, pH 7.2, dexpanthenol 0.1% or none
Protocol: (§2) Formulations containing dexpanthenol were prepared in a 0.25% Bis-Tris Propane buffer. The solutions were made isotonic with sodium chloride and preserved with polyhexamethylene biquanide at 0.00005%. The pH was adjusted to 7.2 with either 1 N sodium hydroxide or 1 N hydrochloric acid. The in vitro microbicidal activity of the solutions was determined by exposing C. albicans to 10 ml of each solution at room temperature for 4 hours. Subsequently, an aliquot of each solution was serial diluted onto agar plates and incubated for 48 hours at elevated temperatures. At the conclusion of the incubation period the plates are examined for the development of colonies. The log reduction was determined based on a comparison to the inoculum control. The following table provides the results of the in vitro studies.

[3] = test system: E. coli; assay: in vitro anti-microbial activity of vitamin B solutions in 0.5% Tris buffer with benzalkonium chloride (Example 4); conditions: for effect on the preservative (BAK): 0.5% vitamin B, 25 PPM BAK, E. coli 1 hour; for Log Reduction at 1 hr: E. coli, 0.5% Tris
Protocol: as §1, with “Polyhexamethylene biquanide (PHMB) at 0.0001% was added to each formulation.” left out, “hour.” for “hours.”, “control. The following table provides the results of the in vitro studies.” for “control.”

[4] = test system: C. albicans; assay: in vitro microbicidal activity of vitamin B solutions in 0.2% phosphate buffer preserved with PHMB (Example 1); conditions: PHMB 0.0001%; for activity against C. albicans as compared to the buffer control: 0.5% additive, 4 hours; for 4 Hour Log Reduction: C. albicans, room temperature, additive 0.5% in 0.2% phosphate buffer, isotonic, pH 7.2, vs inoculum control
Protocol: as §2, with “Pyridoxine HCl (Spectrum) and Thiamine HCl (Fisher)” for “dexpanthenol”, “0.2% phosphate” for “0.25% Bis-Tris Propane”, “biguanide” for “biquanide”, “0.0001%.” for “0.00005%.”, “control.” for “control. The following table provides the results of the in vitro studies.”

[5] = room temperature, 0.6% sodium chloride, pH 7.2, 25 PPM BAK, vitamin B 0.5%

CC(C)(CO)[C@@H](O)C(=O)NCCCO [Dexpanthenol, dexpanthenol]
effect on the preservative (PHMB) [1]: enhancement of the preservative
Log Reduction at 1 hr [1]: 4.82
Log Reduction Calibicans 4 hour [2]: 4.9
preservative efficacy over a solution with a preservative alone ([2]; dexpanthenol 0.1%, C. albicans 4 hours): improved preservative efficacy
effect on the preservative (BAK) [3]: enhancement of the preservative
Log Reduction at 1 hr [3, 5]: >5.12

Cc1ncc(CO)c(CO)c1O.Cl [Pyridoxine HCl]
effect on the preservative (PHMB) [1]: enhancement of the preservative
Log Reduction at 1 hr [1]: 4.34
effect on the preservative (BAK) [3]: enhancement of the preservative
Log Reduction at 1 hr [3, 5]: >5.12
activity against C. albicans as compared to the buffer control [4]: improvement in the activity
4 Hour Log Reduction [4]: 2.0

Cc1ncc(C[n+]2csc(CCO)c2C)c(N)n1 [Thiamine HCl]
effect on the preservative (PHMB) [1]: enhancement of the preservative
Log Reduction at 1 hr [1]: 5.12
Log Reduction at 1 hr [3, 5]: 3.30
activity against C. albicans as compared to the buffer control [4]: improvement in the activity
4 Hour Log Reduction [4]: 1.0

polyhexamethylene biguanide [PHMB]
Log Reduction at 1 hr [1]: 0.42
Log Reduction Calibicans 4 hour [2]: 3.8
Log Reduction at 1 hr ([3]; no vitamin B, row printed with 1 ppm PHMB): 0.42
